# Results taken from paper PMC3372086 (Journal of Medicinal Chemistry, 2012).
# Counter-ions that a name gives are not always drawn.
# Assays:
# [1] = tested on: several laboratory strains and primary isolates; details: cited from earlier work
# [2] = tested on: MT-2 cells; experiment: Cytotoxicity in MT-2 cells; assay type: cell-based, Human; details: for % toxicity at that dose (number in parenthesis), MT-2 cells: at the dose given as CC50 bound
# [3] = tested on: TZM-bl cells; experiment: Cytotoxicity in TZM-bl cells; assay type: cell-based; details: at the dose given as CC50 bound
smiles,measurement,setting,value
CC1(C)CC(NC(=O)C(=O)Nc2ccc(Cl)cc2)CC(C)(C)N1 [compound 1],potency against several laboratory strains and primary isolates,[1],low micromolar potency
CC1(C)CC(NC(=O)C(=O)Nc2ccc(Br)cc2)CC(C)(C)N1 [compound 2],potency against several laboratory strains and primary isolates,[1],low micromolar potency
"Cc1nc(C(NC(=O)C(=O)Nc2ccc(Cl)cc2)C2CCCCN2)sc1CCO (stereo not drawn) [compound 9, N^1-(4-chlorophenyl)-N^2-((5-(2-hydroxyethyl)-4-methylthiazol-2-yl)(piperidin-2-yl)methyl)oxalamide.HCOOH]","% toxicity at that dose (number in parenthesis), MT-2 cells",[2],0%
"Cc1nc(C(NC(=O)C(=O)Nc2ccc(F)c(F)c2)C2CCCCN2)sc1CO (stereo not drawn) [compound 22, N^1-(3,4-difluorophenyl)-N^2-((5-(hydroxymethyl)-4-methylthiazol-2-yl)(piperidin-2-yl)methyl)oxalamide.HCl]","% toxicity at that dose (number in parenthesis), TZM-bl cells",[3],0%
"Cc1nc(C(NC(=O)C(=O)Nc2ccc(F)c(Cl)c2)C2CCCCN2)sc1CO (stereo not drawn) [compound 24, N^1-(3-chloro-4-fluorophenyl)-N^2-((5-(hydroxymethyl)-4-methylthiazol-2-yl)(piperidin-2-yl)methyl)oxalamide.2HCl]","% toxicity at that dose (number in parenthesis), TZM-bl cells",[3],0%
"Cc1nc(C(NC(=O)C(=O)Nc2ccc(F)cc2)C2CCCCN2)sc1CO (stereo not drawn) [compound 25, N^1-(4-fluorophenyl)-N^2-((5-(hydroxymethyl)-4-methylthiazol-2-yl)(piperidin-2-yl)methyl)oxalamide.HCl]","% toxicity at that dose (number in parenthesis), TZM-bl cells",[3],0%
"Cc1ccc(NC(=O)C(=O)NC(c2nc(C)c(CO)s2)C2CCCCN2)cc1F (stereo not drawn) [compound 28, N^1-(3-fluoro-4-methylphenyl)-N^2-((5-(hydroxymethyl)-4-methylthiazol-2-yl)(piperidin-2-yl)methyl)oxalamide.HCl]","% toxicity at that dose (number in parenthesis), TZM-bl cells",[3],0%
"Cc1nc(C(NC(=O)C(=O)Nc2ccc(Cl)cc2)C2CCCCN2)sc1CCO.O=CO (stereo not drawn) [compound 30, N^1-(4-chlorophenyl)-N^2-((5-(2-hydroxyethyl)-4-methylthiazol-2-yl)(piperidin-2-yl)methyl)oxalamide.HCOOH]","% toxicity at that dose (number in parenthesis), MT-2 cells",[2],0%
same,CC50,"[2]; read-out: MT-2 Cells CC50 (μM ± SD), MT-2 cells, XTT, 4 days",> 62 µM
